Peptide text beside a SMILES is read from it.
Assays:
[1] = system: A549 lung adenocarcinoma cell line; test: Cell viability assay (MTT); format: cell-based, human; conditions: Table S2; MTT, 24 h; mean ± sd; N = 2 independent measurements with six technical replicates each (Figs S6-S8); read-out: A549 EC50 /µM
Method in brief: (§1)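 Viability by MTT: 10^4 cells/well exposed 24 h to 2-fold peptide dilutions from 100 μM in DMEM, then 1 h with 0.5 mg mL−1 MTT; absorbance at 540 nm relative to peptide-free medium as 100% survival. EC50 from a 3-parameter log-logistic fit.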

[2] = system: MCF7 breast adenocarcinoma cell line; test: Cell viability assay (MTT); format: cell-based, human; conditions: Table S2, 24 h, mean ± sd, N = 2 independent measurements with six technical replicates each (Figs S6-S8)
Method in brief: as §1

[3] = system: noncancer HDMEC primary cells (human dermal microvascular endothelial cells); test: Cell viability assay (MTT); format: cell-based; conditions: Table S2; noncancer primary cells; MTT, 24 h; mean ± sd; N = 2 independent measurements with six technical replicates each (Figs S6-S8)
Method in brief: as §1

human erythrocytes = test: Hemolysis assay; format: cell-based; conditions: red cells of human, 1 h
Method in brief: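 Washed human erythrocytes (5% v/v in PBS) were mixed with peptide plated as a 200–6.25 μM series, in triplicate, for 1 h at 37 °C. Released haemoglobin in the supernatant was read at 540 nm, scaled to 0.1% Triton X-100 (100%) and PBS (0%). HC50 came from a 3-parameter log-logistic fit.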

SMILES | EC50 [1] | EC50 [2] | EC50 [3] | Eryhtr. HC50 /µM (human erythrocytes)
CC[C@H](C)[C@H](NC(=O)[C@H](CCCNC(=N)N)NC(=O)[C@H](Cc1ccccc1)NC(=O)[C@H](CC(C)C)NC(=O)[C@H](CCCCN)NC(=O)[C@H](CCCCN)NC(=O)[C@H](Cc1c[nH]c2ccccc12)NC(=O)[C@H](Cc1ccc(O)cc1)NC(=O)[C@@H](NC(=O)[C@H](CCCCN)NC(=O)[C@@H](NC(=O)[C@H](CCCCN)NC(=O)[C@H](CCCCN)NC(=O)[C@H](Cc1ccccc1)NC(=O)[C@@H](NC(=O)[C@@H](N)Cc1c[nH]cn1)[C@@H](C)CC)C(C)C)[C@@H](C)O)C(=O)N[C@@H](CC(C)C)C(=O)NCC(=O)N[C@@H](CCCNC(=N)N)C(=O)N[C@@H](Cc1ccccc1)C(N)=O [Off6] (H-HIFKKVKTYWKKLFRILGRF-NH2) | 18 ± 2 µM | 12 ± 3 µM | 5 ± 0.7 µM | 16 ± 2 µM
CC[C@H](C)[C@H](NC(=O)[C@@H](N)CCC(N)=O)C(=O)N[C@@H](Cc1ccc(O)cc1)C(=O)N[C@@H](CCCCN)C(=O)N[C@@H](CCCCN)C(=O)N[C@@H](Cc1ccc(O)cc1)C(=O)N[C@@H](CCCNC(=N)N)C(=O)N[C@H](C(=O)N[C@@H](Cc1c[nH]c2ccccc12)C(=O)N[C@@H](Cc1ccc(O)cc1)C(=O)N[C@@H](CCCNC(=N)N)C(=O)N[C@@H](CCCCN)C(=O)N[C@@H](C)C(=O)N[C@@H](Cc1c[nH]c2ccccc12)C(=O)N[C@@H](CCCCN)C(=O)N[C@H](C(=O)N[C@@H](CC(C)C)C(=O)NCC(=O)N[C@@H](CCCCN)C(=O)N[C@H](C(N)=O)C(C)C)C(C)C)[C@@H](C)O [Off2.2.10] (H-QIYKKYRTWYRKAWKVLGKV-NH2) | 36 ± 7 µM | 16.9 ± 0.8 µM | 71 ± 12 µM | > 200 µM
CC[C@H](C)[C@H](NC(=O)[C@@H](N)CCCCN)C(=O)N[C@@H](Cc1ccccc1)C(=O)N[C@@H](CCCCN)C(=O)N[C@@H](CCCCN)C(=O)N[C@@H](Cc1ccccc1)C(=O)N[C@@H](CCCCN)C(=O)N[C@@H](CC(=O)O)C(=O)N[C@@H](Cc1c[nH]c2ccccc12)C(=O)N[C@@H](Cc1ccccc1)C(=O)N[C@@H](CCCCN)C(=O)N[C@@H](CCCCN)C(=O)N[C@@H](C)C(=O)N[C@@H](Cc1ccccc1)C(=O)N[C@@H](Cc1c[nH]cn1)C(=O)N[C@H](C(=O)N[C@@H](CC(C)C)C(=O)NCC(=O)N[C@@H](CCCCN)C(=O)N[C@H](C(N)=O)C(C)C)C(C)C [Off2.5] (H-KIFKKFKDWFKKAFHVLGKV-NH2) | 14.8 ± 0.7 µM | 10.4 ± 0.8 µM | 22 ± 1 µM | > 100 µM
CC[C@H](C)[C@H](NC(=O)[C@H](CC(C)C)NC(=O)[C@@H](N)CCCNC(=N)N)C(=O)N[C@@H](CCCCN)C(=O)N[C@@H](CCCNC(=N)N)C(=O)N[C@H](C(=O)N[C@@H](CCCCN)C(=O)N[C@H](C(=O)N[C@@H](Cc1c[nH]c2ccccc12)C(=O)N[C@@H](Cc1ccc(O)cc1)C(=O)N[C@@H](CCCNC(=N)N)C(=O)N[C@@H](CCCCN)C(=O)N[C@@H](C)C(=O)N[C@@H](Cc1c[nH]c2ccccc12)C(=O)N[C@@H](CCCCN)C(=O)N[C@H](C(=O)N[C@H](C(=O)NCC(=O)N[C@@H](CCCCN)C(=O)N[C@@H](Cc1ccccc1)C(N)=O)C(C)C)C(C)C)[C@@H](C)O)[C@@H](C)CC [Off2.7] (H-RLIKRIKTWYRKAWKVVGKF-NH2) | 15 ± 1 µM | 11.2 ± 0.7 µM | 23 ± 5 µM | > 200 µM
CC[C@H](C)[C@H](NC(=O)[C@H](CCCCN)NC(=O)CNC(=O)[C@@H](NC(=O)[C@H](Cc1ccc(O)cc1)NC(=O)[C@H](Cc1c[nH]cn1)NC(=O)[C@H](Cc1c[nH]c2ccccc12)NC(=O)[C@@H](NC(=O)[C@H](CCCCN)NC(=O)[C@H](CCCCN)NC(=O)[C@H](CC(C)C)NC(=O)[C@@H](NC(=O)[C@H](Cc1c[nH]cn1)NC(=O)[C@H](CCCNC(=N)N)NC(=O)[C@H](Cc1ccccc1)NC(=O)[C@H](CCCCN)NC(=O)[C@H](CCCCN)NC(=O)[C@H](Cc1ccc(O)cc1)NC(=O)[C@H](CC(C)C)NC(=O)[C@@H](N)CCCCN)[C@@H](C)CC)C(C)C)C(C)C)C(N)=O [Off3] (H-KLYKKFRHILKKVWHYVGKI-NH2) | 14 ± 3 µM | 10 ± 1 µM | 10 ± 3 µM | 29 ± 3 µM

Source: paper PMC6677754, “In silico design and optimization of selective membranolytic anticancer peptides” (Scientific Reports, 2019)
